Test results published in patent publication US10159676B2, “Induction of tumor hypoxia for cancer therapy” (Virginia Commonwealth University, priority 2008, dated 2018).

Experiments:
UCI-101 tumor xenograft = experiment: Tumor growth, stilbene 5c with or without bevacizumab; type: in vivo, nude mice; settings: stilbene 5c 20 mg/kg/day Monday to Friday for two weeks; bevacizumab 10 mg/kg twice a week for 5 doses
Method: FIG. 4. Efficacy of stilbene 5c in vivo and enhanced effect by bevacizumab. Nude mice were injected with UCI-101 cells subcutaneously and mice are treated with stilbene 5c at 20 mg/kg/day Monday-Friday with or without bevacizumab 10 mg/kg twice a week. Tumor volume was calculated by the long and short axes. Each group contains 8 mice and the average tumor volumes and standard deviations were plotted against days.
Tumor cell lines used in this study include UCI-101 ovarian cancer cells and Hep3B hepatocellular carcinoma cells. Cells are grown in IMEM and DMEM, respectively, supplemented with 10% fetal bovine serum, glutamine, and penicillium/streptomycin in 5% CO2 humidified environment. When cells were grown to 80% confluent, cells were harvested with 1% trypsin and washed with phosphate-buffered saline three times before injected subcutaneously into nude mice. For mouse xenograft studies, 2×10^6 tumor cells were injected in the back subcutaneously. Nude mice were purchased from NCI Development Therapeutic Program as described. Tumor size was monitored by long and short axes (a and b, respectively) by a caliber and tumor volume was calculated by the formula ab^2/2. […]. Treatment with AAA bevacizumab was done by tail vein injection at a dose of 10 mg/kg.
Next we used ovarian cancer UCI101 cells to study the in vivo efficacy of stilbene 5c We first administered stilbene 5c with intraperitoneal injection at 25 mg/kg three times a week. Tumor volume was calculated by measuring the long and short axes. […] The failure could be due to the possibility that intermittent dosing leaves a viable rim of tumor, which survives the treatment of VDAs by getting nutritional and blood support from surrounding normal vasculature. When treatment with VDAs is stopped, the viable rim of tumor grows quickly. Tumor vasculature recovers quickly by recruitment of the mobilized endothelial progenitor cells. Based on this rationale, we combined stilbene 5c with bevacizumab, which was used to neutralize VEGF secreted by UCI-101 tumor cells. […]

[1] = in vivo; cited from earlier work
hypoxic cells = settings: cited from earlier work
[2] = Weight loss in multiple dosing xenograft study; type: in vivo, nude mice; settings: day 14; tirapazamine 60 mg/kg ip days 8, 10, 12 (alone or with stilbene 5c 50 mg/kg)
Method: Next we measured the size of tumor xenografts after multiple dosing. Nude mice were injected subcutaneously with UCI-101 cells and tumor became visible after day 7. Treatment was administered by intraperitoneal injection on days 8, 10 and 12 with 6 mice in each group. […] […]. […].

UCI-101 tumor xenografts = experiment: Tumor xenograft size after multiple dosing (days 8, 10, 12); type: in vivo, nude mice; settings: ip on days 8, 10 and 12; stilbene 5c 50 mg/kg, tirapazamine 60 mg/kg; day 14; 6 mice per group
Method: The long and short axes of tumor were measured to calculate tumor size and plotted against days. Each treatment group contains 6 mice.
Mice were then sacrificed at day 14. The long and short axes of tumors were measured to calculate tumor size and plotted against days. Each treatment group contains 6 mice.
Tumor cell lines used in this study include UCI-101 ovarian cancer cells and Hep3B hepatocellular carcinoma cells. Cells are grown in IMEM and DMEM, respectively, supplemented with 10% fetal bovine serum, glutamine, and penicillium/streptomycin in 5% CO2 humidified environment. When cells were grown to 80% confluent, cells were harvested with 1% trypsin and washed with phosphate-buffered saline three times before injected subcutaneously into nude mice. For mouse xenograft studies, 2×10^6 tumor cells were injected in the back subcutaneously. Nude mice were purchased from NCI Development Therapeutic Program as described. Tumor size was monitored by long and short axes (a and b, respectively) by a caliber and tumor volume was calculated by the formula ab^2/2. […] Treatment with AAA bevacizumab was done by tail vein injection at a dose of 10 mg/kg.
Next we measured the size of tumor xenografts after multiple dosing. Nude mice were injected subcutaneously with UCI-101 cells and tumor became visible after day 7. […] Tumor xenografts were measured and sizes are plotted in FIG. 7.

tumor = settings: tirapazamine alone given at 70 mg/kg; cited from earlier work
[3] = system: stage IV non-small cell lung cancer; settings: cited from earlier work
[4] = in vivo; cited from earlier work; remark: listed apart in the source
[5] = cited from earlier work
[6] = phase I, intravenous every three weeks

Compound	tumor growth suppression (UCI-101 tumor xenograft)	half-life [1]	greater toxicity to hypoxic cells compared to well-oxygenated cells (hypoxic cells)	weight loss [2] [%]	size of tumor compared with the control (UCI-101 tumor xenografts)	tumor growth suppression (tumor)	response rate, overall survival, or progression free survival ([3]; tirapazamine 260-330 mg/m^2 added to carboplatin and paclitaxel vs placebo)	systemic toxicity ([3]; tirapazamine added to carboplatin and paclitaxel vs placebo)	potential side effects in animal studies [4]	tolerated dose, tirapazamine by itself ([5]; phase I and phase II trials)	dose with dose limiting toxicities (reversible ototoxicity and transient visual abnormality) [5, 6]	maximum tolerated dose (MTD) [5, 6] [mg/m^2]
bevacizumab: a monoclonal antibody against vascular endothelial growth factor (VEGF) [reference compound]	about 25%	over 7 days										
Nc1n[n+]([O-])c2ccccc2[n+]1[O-] [tirapazamine, 3-amino-1,2,4-benzotriazine-1,4-di-N-oxide]			15-200 fold	20	about 50%	no effect	no benefit	increased systemic toxicity	bone marrow toxicity, necrosis of the olfactory nerve, and retinal degeneration	up to 390 mg/m^2	above 330 mg/m^2	390
